We go through five molecules from patent publication US20170239237A1, “PYRROLOQUINOLINE DERIVATIVES AS 5-HT6 ANTAGONISTS, PREPARATION METHOD AND USE THEREOF” (Uniwersytet Jagiellonski, priority 2013, published 2017).

pKi: −log10 of the molar value. Where two headings read alike, the source gives them in different places.

In one series the target is 5-HT7 receptor (Homo sapiens, UniProt P34969). Briefly: Radioligand binding, 5-HT7 ([3H]-5-CT displacement).
Series [1] has as its system Wistar rats. Kind of series: Conflict drinking test (Vogel test) in Wistar rats. The conditions noted are these: for Minimum effective dose, conflict drinking (Vogel test) in rats (potential anxiolytic properties): IP, 60 minutes before the test, Wistar rats. Format: in vivo, rat. The method, then:
(§1) For intraperitoneal (i.p.) administration: to the desired quantity of the solid compound in a glass beaker, required volume of sterile water for injection was added and swirled with glass bar until complete dissolution of the compound.
(§2) Animals. Male Wistar rats weighing 220-250 g were used in the test. […] All animals were kept in an environmentally controlled rooms (ambient temperature 22±2° C; relative humidity 50-60%; 12:12 light:dark cycle, lights on at 8:00). They were allowed to acclimatize with the environment for one week before commencement of the experiments. Standard laboratory food (Ssniff M-Z) and filtered water were freely available. The experiments were conducted in the light phase between 09.00 and 14.00 hours. 1 h before the start of the experiment, rats were transferred to the experimental room for acclimation.
Apparatus and procedure. […] Experimental chambers were connected to PC software by control chassis and electric shocks' generator. On the first day of the experiment, the rats were adapted to the test chambers for 10 min. […] Afterwards, they were allowed a 30-min free-drinking session in their home cages. […] Recording data started immediately after the first lick and every 20 licks rats were punished with an electric shock (0.5 mA, lasting 1 s). The impulses were released via the spout of the drinking bottles. If a rat was drinking when an impulse was released, it received a shock. The number of licks and the number of shocks received during a 5-min experimental session was recorded automatically.
(§3) Experimental design. The compounds were administered IP, 60 minutes before the test.
(§4) Drugs. The experimental compounds were dissolved in the distilled water. All compounds were administrated in the volume of 2 ml/kg.

For series [2], the system named is Wistar rats. Briefly: Forced swim test (FST) in Wistar rats. The following applies: for Minimum effective dose, forced swim test in rats (potential antidepressant properties): IP, 60 minutes before the test, Wistar rats. In kind it is in vivo, rat. The procedure: as §1, §2
Apparatus and procedure. […] On the first day of experiment, the animals were gently individually placed in Plexiglas cylinders (40 cm high, 18 cm in diameter) containing 15 cm of water maintained at 25° C. for 15 min. Upon removal from water, the rats were placed in a Plexiglas box for 30 min under a 60-W bulb to dry off. On the following day, the rats were placed again in the cylinder and the total duration of immobility was recorded throughout the 5-min test period. Fresh water was used for each animal.
as §3, §4

Another series addresses T1, 5-HT2C receptors (Homo sapiens, UniProt P28335).
T1 sequence (P28335 33-458): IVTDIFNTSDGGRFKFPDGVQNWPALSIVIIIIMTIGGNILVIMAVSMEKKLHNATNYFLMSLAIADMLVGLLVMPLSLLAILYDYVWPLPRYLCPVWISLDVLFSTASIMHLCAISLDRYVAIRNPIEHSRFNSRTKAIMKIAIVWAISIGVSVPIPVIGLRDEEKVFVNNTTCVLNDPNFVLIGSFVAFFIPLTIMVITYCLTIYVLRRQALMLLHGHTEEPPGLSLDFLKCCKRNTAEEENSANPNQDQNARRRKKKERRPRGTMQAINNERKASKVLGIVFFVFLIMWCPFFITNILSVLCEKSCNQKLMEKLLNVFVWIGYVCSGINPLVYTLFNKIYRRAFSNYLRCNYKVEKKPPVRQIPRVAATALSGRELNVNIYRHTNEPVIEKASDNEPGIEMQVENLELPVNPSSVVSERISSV
Kind of series: biochemical. The following applies: read-out: % inhibition of control binding at 10^−6M, 5-HT2C.

Another series concerns the target dopamine D2L receptor (Homo sapiens, UniProt P14416). Kind of series: Radioligand binding, D2 ([3H]-raclopride displacement).
For the next series, the target named is D3 receptors (Homo sapiens, UniProt P35462). Briefly: biochemical. The conditions noted are these: read-out: % inhibition of control binding at 10^−6M, D3.
Sequence of D3 receptors (P35462 whole entry): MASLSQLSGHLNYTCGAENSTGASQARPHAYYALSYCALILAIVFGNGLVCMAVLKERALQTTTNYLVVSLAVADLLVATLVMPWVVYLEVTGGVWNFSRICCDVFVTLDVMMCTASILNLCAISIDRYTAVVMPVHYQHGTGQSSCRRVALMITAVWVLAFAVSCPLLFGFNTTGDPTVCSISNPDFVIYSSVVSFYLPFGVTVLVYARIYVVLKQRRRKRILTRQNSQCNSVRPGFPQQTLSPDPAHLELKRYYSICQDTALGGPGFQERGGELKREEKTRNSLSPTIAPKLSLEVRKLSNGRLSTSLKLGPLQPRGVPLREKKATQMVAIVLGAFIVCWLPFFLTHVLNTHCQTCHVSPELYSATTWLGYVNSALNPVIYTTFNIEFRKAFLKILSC
A further series has as its target T2, M1 receptors (Homo sapiens, UniProt P11229).
T2 sequence (P11229 1-460): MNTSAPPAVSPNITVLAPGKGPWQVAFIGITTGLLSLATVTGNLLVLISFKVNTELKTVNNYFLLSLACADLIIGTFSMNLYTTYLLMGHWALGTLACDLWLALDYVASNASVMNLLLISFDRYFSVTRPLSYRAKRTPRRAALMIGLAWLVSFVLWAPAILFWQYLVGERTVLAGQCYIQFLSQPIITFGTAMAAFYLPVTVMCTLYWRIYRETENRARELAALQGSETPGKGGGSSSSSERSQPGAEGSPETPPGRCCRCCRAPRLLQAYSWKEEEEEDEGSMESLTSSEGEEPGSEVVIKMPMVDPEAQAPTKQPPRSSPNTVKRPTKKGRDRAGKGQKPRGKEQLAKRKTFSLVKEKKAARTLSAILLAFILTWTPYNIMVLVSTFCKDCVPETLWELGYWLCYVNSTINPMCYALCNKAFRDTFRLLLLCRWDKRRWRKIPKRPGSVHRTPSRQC
Kind of series: biochemical. The following applies: read-out: % inhibition of control binding at 10^−6M, M1.

For the next series, the target named is T3, 5-HT1A receptor (Homo sapiens, UniProt P08908).
T3 sequence (P08908 1-422): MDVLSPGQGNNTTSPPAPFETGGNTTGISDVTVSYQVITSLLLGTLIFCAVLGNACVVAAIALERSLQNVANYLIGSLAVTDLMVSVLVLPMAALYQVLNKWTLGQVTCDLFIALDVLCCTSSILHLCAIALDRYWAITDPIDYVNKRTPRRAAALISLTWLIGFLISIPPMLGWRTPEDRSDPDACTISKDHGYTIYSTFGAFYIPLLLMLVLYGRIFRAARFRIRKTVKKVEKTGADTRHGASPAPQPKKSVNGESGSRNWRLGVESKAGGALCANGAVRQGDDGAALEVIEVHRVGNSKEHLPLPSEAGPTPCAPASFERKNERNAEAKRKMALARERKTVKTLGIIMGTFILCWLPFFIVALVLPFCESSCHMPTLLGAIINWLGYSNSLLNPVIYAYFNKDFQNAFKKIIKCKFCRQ
Briefly: Radioligand binding, 5-HT1A ([3H]-8-OH-DPAT displacement).

The target in a further series is H1 receptors (Homo sapiens, UniProt P35367). Kind of series: biochemical. The following applies: read-out: % inhibition of control binding at 10^−6M, H1.
Sequence of H1 receptors (P35367 whole entry): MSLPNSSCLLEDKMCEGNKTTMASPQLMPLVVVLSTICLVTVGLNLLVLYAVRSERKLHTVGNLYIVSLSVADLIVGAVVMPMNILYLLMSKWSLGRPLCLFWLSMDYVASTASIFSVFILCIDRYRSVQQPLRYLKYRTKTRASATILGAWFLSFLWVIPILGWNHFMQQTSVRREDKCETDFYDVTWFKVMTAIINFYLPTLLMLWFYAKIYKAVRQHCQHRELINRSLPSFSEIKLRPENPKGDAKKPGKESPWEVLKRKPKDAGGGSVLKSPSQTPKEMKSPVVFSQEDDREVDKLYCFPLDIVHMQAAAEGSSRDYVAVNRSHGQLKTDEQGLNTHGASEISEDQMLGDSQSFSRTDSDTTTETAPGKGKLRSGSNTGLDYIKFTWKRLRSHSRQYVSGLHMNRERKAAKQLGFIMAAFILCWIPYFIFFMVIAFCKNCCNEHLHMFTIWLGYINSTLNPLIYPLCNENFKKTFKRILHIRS
The test system of a further series is Sprague-Dawley rats. Briefly: Novel object recognition (NOR) test in Sprague-Dawley rats, PCP-induced deficit. Format: in vivo, rat.

Sequence of dopamine D2L receptor (P14416 whole entry): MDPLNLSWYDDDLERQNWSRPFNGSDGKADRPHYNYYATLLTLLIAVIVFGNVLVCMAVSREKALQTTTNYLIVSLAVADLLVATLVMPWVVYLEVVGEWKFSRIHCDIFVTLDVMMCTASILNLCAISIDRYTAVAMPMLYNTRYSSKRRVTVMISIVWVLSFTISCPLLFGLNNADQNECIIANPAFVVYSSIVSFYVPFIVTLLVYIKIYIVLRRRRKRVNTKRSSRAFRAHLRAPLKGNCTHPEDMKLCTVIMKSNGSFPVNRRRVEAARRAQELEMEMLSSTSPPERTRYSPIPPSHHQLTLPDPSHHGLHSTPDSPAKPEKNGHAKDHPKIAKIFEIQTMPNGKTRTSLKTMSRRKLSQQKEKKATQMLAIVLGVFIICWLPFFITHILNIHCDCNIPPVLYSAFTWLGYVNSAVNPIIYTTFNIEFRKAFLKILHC
Sequence of 5-HT7 receptor (P34969 1-432 limits assumed): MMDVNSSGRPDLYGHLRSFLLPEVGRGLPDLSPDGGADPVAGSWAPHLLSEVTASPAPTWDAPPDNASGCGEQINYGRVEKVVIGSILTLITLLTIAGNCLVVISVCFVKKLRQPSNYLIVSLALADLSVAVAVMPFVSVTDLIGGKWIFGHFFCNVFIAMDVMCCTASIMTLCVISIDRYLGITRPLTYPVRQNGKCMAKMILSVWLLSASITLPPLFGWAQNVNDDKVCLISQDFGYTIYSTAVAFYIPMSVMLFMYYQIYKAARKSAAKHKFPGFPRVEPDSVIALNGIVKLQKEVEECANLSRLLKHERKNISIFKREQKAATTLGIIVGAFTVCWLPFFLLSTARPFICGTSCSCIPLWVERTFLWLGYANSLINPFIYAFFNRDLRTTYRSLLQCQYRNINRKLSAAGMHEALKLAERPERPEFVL
Procedure for 5-HT2C receptors: (§5) Each compound was tested in duplicate at 10^-6 M concentration.
Procedure for D3 receptors: as §5
Procedure for H1 receptors: as §5
Procedure for M1 receptors: as §5
Procedure for Sprague-Dawley rats: Rats were allowed to acclimatize for at least 7 days before the start of the experimental procedure. During this week animals were handled for at least 3 times. Behavioral testing was carried out during the light phase of the light/dark cycle. At least 1 h before the start of the experiment, rats were transferred to the experimental room for acclimation.
Apparatus and procedure. Rats were tested in a dimly lit (25 lx) “open field” apparatus made of a dull gray plastic (66×56×30 cm). After each measurement, the floor was cleaned and dried.
The procedure lasting for 2 days consisted of the habituation to the test arena (without any objects) for 5 min. The test session comprising of two trials separated by an inter-trial interval (ITI) of 1 h was carried out on the next day. […]
Exploration time of the objects and the distance traveled were measured using the Any-maze® video tracking system. Based on exploration time (E) of two objects during T2, discrimination index (DI) was calculated according to the formula: […]

As a reminder, the pKi is the Ki on a negative log10 scale, so that one unit is a factor of ten. The inhibition is the relative decrease from the control value, in per cent. In the case of `O=S(=O)(c1cccc(Cl)c1)n1ccc2c(N[C@H]3CCNC3)nc3ccccc3c21` [Compound 6, (S)-1-((3-chlorophenyl)sulfonyl)-N-(pyrrolidin-3-yl)-1H-pyrrolo[3,2-c]quinolin-4-amine], the values for the pKi at 5-HT7 receptor, at dopamine D2L receptor and on 5-HT1A receptor were 5.30, 5.99 and 5.63, respectively. Also, in the series on Wistar rats [1], the “Minimum effective dose, conflict drinking (Vogel test) in rats (potential anxiolytic properties)” value came out at 3 mg/kg. Further, the “Minimum effective dose, forced swim test in rats (potential antidepressant properties)” value (from here on “Minimum effective dose, forced swim test”) with Wistar rats [2] stood at 10 mg/kg. Besides, the inhibition at 1 µM on 5-HT2C receptors amounted to 21%; on D3 receptors, 69%; at M1 receptors it was 9%.
For the molecule `O=S(=O)(c1cccc(Cl)c1)n1ccc2c(N[C@@H]3CCNC3)nc3ccccc3c21` [Compound 7, (R)-1-((3-chlorophenyl)sulfonyl)-N-(pyrrolidin-3-yl)-1H-pyrrolo[3,2-c]quinolin-4-amine], the pKi at 5-HT7 receptor was 5.40; on dopamine D2L receptor, 6.12; at 5-HT1A receptor it was 5.57. In the series on Wistar rats [1], the “Minimum effective dose, conflict drinking (Vogel test) in rats (potential anxiolytic properties)” value came to 10 mg/kg. In the series with Wistar rats [2], the “Minimum effective dose, forced swim test” value came to 3 mg/kg. The inhibition at 1 µM at 5-HT2C receptors is 2%; at D3 receptors, 82%; on H1 receptors, 17%; at M1 receptors, -1%.
What is called melting point is the temperature of the solid-liquid transition. For `O=S(=O)(c1cccc(Cl)c1)n1ccc2c(N3CCNCC3)nc3ccccc3c21` [Compound 29, 1-((3-chlorophenyl)sulfonyl)-4-(piperazin-1-yl)-1H-pyrrolo[3,2-c]quinoline], the melting point lay in the range of 161 to 163 °C. For the same molecule, the pKi at 5-HT7 receptor (read-out: Ki 5-HT7) was 5.75. The “Minimum effective dose, conflict drinking (Vogel test) in rats (potential anxiolytic properties)” value in the series on Wistar rats [1] worked out at 10 mg/kg. Further, the “Minimum effective dose, forced swim test” value in the series on Wistar rats [2] was more than 10 mg/kg. Further, on 5-HT2C receptors, the inhibition at 1 µM turned out to be 13%. On dopamine D2L receptor (read-out: Ki D2, cloned human receptor in HEK293, three independent experiments, SEM ± 22%), the pKi was 5.87. At D3 receptors, the inhibition at 1 µM was found to be 66%. The inhibition at 1 µM at M1 receptors was -11%. Further, at 5-HT1A receptor (read-out: Ki 5-HT1A, cloned human receptor in HEK293, three independent experiments, SEM ± 22%), the negative-log Ki (pKi) was 6.11.
Turning to `O=S(=O)(c1cccc2ccccc12)n1ccc2c(N3CCNCC3)nc3ccccc3c21` [Compound 43, 1-(naphthalen-1-ylsulfonyl)-4-(piperazin-1-yl)-1H-pyrrolo[3,2-c]quinoline], the melting point was in the range of 158 to 160 °C. At 5-HT7 receptor, this molecule gave a pKi of 5.70. This molecule also gave a pKi on dopamine D2L receptor of 5.40. Besides, at 5-HT1A receptor, the negative logarithm of the Ki (pKi) is 6.15.
With `COc1ccc(NS(=O)(=O)c2sc3ccc(Cl)cc3c2C)cc1N1CCNCC1` [SB-271046, reference compound], in the series on Wistar rats [1] (rats), the “active dose in the conflict drinking test (Vogel test), increasing number of licks and shocks received” value was not above 10 mg/kg. The “effective dose in the forced swim test (reference compounds)” value in the series on Wistar rats [2] (rats, antidepressant-like activity, imipramine increased climbing time) is given as 10 mg/kg. Also, in the series on Sprague-Dawley rats, the “dose effective against PCP-induced cognitive deficit in NOR test” value came out at 1 mg/kg.
